This is an account of results in patent US20100036088A1, “Selective poly-N-substituted glycine antibiotics” (priority 2008, published 2010).

SMILES strings stand for the structures. Like-named read-outs stand apart in the source and are kept apart here. Numbered stars: 1 amine (or outer) side, 2 acyl side, 3 side chain; on linkers, the order of the positions; unused ones are H or OH. Square brackets hold non-standard residues; d marks the D form. Peptide text beside a SMILES is read from it. Gly(N-CH2CH2-imidazol-4-yl) = O=C(O)CNCCc1c[nH]cn1; X1 = CC(C)[C@H](C)N(CC(=O)[*:2])[*:1]; Nspe = C[C@H](NCC(=O)O)c1ccccc1; Nlys = NCCCCNCC(=O)O Bounds are passed on as bounds.

One series deals with E. coli (ATCC 35218). It is filed as cell-based. Particulars: ATCC 35218. How it is done: (§1) Whereas the preceding generation of molecules was designed to elucidate structure function relationships of specific molecular parameters (chirality, length, hydrophobicity, etc.), another generation compounds were designed explicitly to explore effects on selectivity. Antimicrobial activity of these compounds was tested against bacterial strains E. coli (ATTC 35218) and B. subtilis (ATTC 6633) in cation-adjusted MHB using the microdilution protocols previously described. The sequences, antimicrobial activities, hemolytic activities, and metabolic inhibitory concentrations against NIH 3T3 mouse fibroblast cells are summarized in Table 3 and the rationale of their design is described below.
(§2) The potencies of all compounds were determined against representative Gram-negative (E. coli ATCC 35218) and Gram-positive (B. subtilis ATCC 6633) biosafety level 1 (BSL1) organisms. In addition to hemolytic activity, the conventional measure of toxicity to mammalian cells, the effect of each ampetoid on NIH 3T3 mouse fibroblast cells was determined using the MTS tetrazolium salt-based calorimetric assay. While hemolysis measures the degree to which erythrocytes are lysed, the MTS assay indirectly quantifies the extent to which cellular metabolic activity is inhibited.
(§3) Screening antibacterial assays. MICs were determined in 96-well microtiter plates in accordance with CLSI M7-A6 protocols. Peptoid solutions with 50 μL total volume were prepared using 2:1 serial dilutions. 50 μL of bacteria inoculum (1×10^6 CFU/mL) prepared in cation-adjusted Mueller-Hinton broth (CAMHB) was added to test wells. Control wells contained 100 μL MHB (no growth) or 50 μL inoculums with 50 μL MHB with no peptoid. […] Reported values were reproducible over three experiments, each containing two parallel trials.

A further series concerns B. subtilis (ATCC 6633). It is filed as cell-based. To be noted: ATCC 6633. The method, then: as §1, §2, §3
The test system of another series is human erythrocytes. Briefly: Hemolysis assay. It is filed as cell-based. The method, then: Hemolysis assays. Erythrocytes were isolated from freshly drawn, heparanized human blood and resuspended to 20 vol % in PBS (pH 7.4). In a 96-well microtiter plate, 100 μL erythrocyte suspension was added to 100 μL peptoid solution in PBS (prepared by 1:2 serial dilutions), or 100 μL PBS in the case of negative controls. 100% hemolysis wells contained 100 μL blood cell suspension with 100 μL 0.2 vol % Triton X-100. The plate was incubated for 1 h at 37° C., then each well was diluted with 150 μL PBS. The plate was then centrifuged at 1200 g for 15 min, 100 μL of the supernatant from each well transferred to a fresh microtiter plate, and A350 measured.
Hemolysis assays. Erythrocytes were isolated from freshly drawn, heparanized human blood and resuspended in PBS (pH 7.4) to make a 20% volume suspension. Peptoid solutions were prepared by serial dilution (2:1) in a 96-well microtiter plate. For test wells, 100 μL of erythrocyte suspension was added to 100 μL of peptoid solution in PBS; PBS without peptoid was used as the negative control and 0.2 vol % Triton X-100 as the positive control that indicates 100% hemolysis. After 1 hour incubation at 37° C., each well was diluted with 150 μL PBS. Plates were then centrifuged at 1,200×g for 15 minutes to pellet the cells. 30 μL of the supernatant from each well were transferred to the corresponding well of a second 96-well plate that contains 70 μL PBS.

Series [1] is described as follows: MTS assay, metabolic inhibition. It is filed as cell-based, mouse. How it is done: as §2
MTS assays. NIH/3T3 cells (ATCC Corporation) cultured at 37° C. and 5% CO2 in complete Dulbecco's modified eagle's media (CDMEM) supplemented with 1% sodium pyruvate, 1% penicillin-streptomycin, 1.5 g/L NaHCO3, and 10% fetal bovine serum. Cells were seeded at a density of 5,000 cells per well for NIH/3T3 cells in 96-well plates (100 μl total volume). A peptoid solution plate (100 μL total volume per well) was prepared by serial dilution of aqueous peptoid stock solution in Hank's balanced salt solution (HBSS) media. The day-old cell monolayers were washed with HBSS and media was replaced with 100 μL HBSS. The contents of the peptoid solution plate were transferred onto corresponding wells of the cell monolayer plate, and 40 μL MTS reagent (Promega, Inc.) was added to each well. After incubating for 3 hours at 37° C., absorbance at 490 nm was determined. […] The average of six replicates is reported.
A general note: Tetrazolium assays rely on reduction of a dye to a coloured formazan, in cell work by metabolically active cells.

By IC50 is commonly meant the concentration at which inhibition is half-maximal.

With `C[C@@H](c1ccccc1)N(CC(=O)N(CCc1c[nH]cn1)CC(=O)N(CCCCN)CC(=O)N(CC(=O)N(CCc1c[nH]cn1)CC(=O)N(CCCCN)CC(=O)N(CC(=O)N(CCc1c[nH]cn1)CC(=O)N(CCCCN)CC(=O)N(CC(=O)N(CCc1c[nH]cn1)CC(N)=O)[C@@H](C)c1ccccc1)[C@@H](C)c1ccccc1)[C@@H](C)c1ccccc1)C(=O)CNCCCCN` [1-Nhis3,6,9,12] (H-[Nlys][Nspe][Gly(N-CH2CH2-imidazol-4-yl)][Nlys][Nspe][Gly(N-CH2CH2-imidazol-4-yl)][Nlys][Nspe][Gly(N-CH2CH2-imidazol-4-yl)][Nlys][Nspe][Gly(N-CH2CH2-imidazol-4-yl)]-NH2), the “E. coli MIC” value in the series with E. coli (ATCC 35218) is greater than 100 µM. The “B. subtilis MIC” value in the series with B. subtilis (ATCC 6633) is 100 µM. In addition, in the series with human erythrocytes, the HD10 is given as >200/>200 μM and the HD50 is on record as >200/>200 μM.
Turning to `C[C@@H](c1ccccc1)N(CC(N)=O)C(=O)CN(Cc1ccccc1)C(=O)CN(CCCCN)C(=O)CN(Cc1ccccc1)C(=O)CN(Cc1ccccc1)C(=O)CN(CCCCN)C(=O)CN(Cc1ccccc1)C(=O)CN(Cc1ccccc1)C(=O)CN(CCCCN)C(=O)CN(Cc1ccccc1)C(=O)CN(Cc1ccccc1)C(=O)CNCCCCN` [1ach-Nspe12, H-(Nlys-Npm-Npm)3-(Nlys-Npm-Nspe)-NH2], in the series with B. subtilis (ATCC 6633), the “B. subtilis MIC” value was found to be 1.6 µM. Moreover, the IC50 in series [1] came out at 15 µM. In the series with human erythrocytes, this molecule displayed an HD10 of 164 µM and an HD50 greater than 200 µM.
As for `C[C@H](c1ccccc1)N(CC(N)=O)C(=O)CN(C(=O)CN(CCCCN)C(=O)CN(C(=O)CN(C(=O)CN(CCCCN)C(=O)CN(C(=O)CN(C(=O)CN(CCCCN)C(=O)CN(C(=O)CN(C(=O)CNCCCCN)[C@@H](C)c1ccccc1)[C@H](C)c1ccccc1)[C@@H](C)c1ccccc1)[C@H](C)c1ccccc1)[C@@H](C)c1ccccc1)[C@H](C)c1ccccc1)[C@@H](C)c1ccccc1` [1-Nrpe3,6,9,12, H-(Nlys-Nspe-Nrpe)4-NH2], the “E. coli MIC” value in the series on E. coli (ATCC 35218) (Table 6) was found to be 6.3 µM. In addition, the “B. subtilis MIC” value in the series on B. subtilis (ATCC 6633) (Table 6) is 1.6 µM. In series [1] (Table 6, NIH 3T3 mouse fibroblast cells), this molecule showed an IC50 of 3.8 µM. In the series on human erythrocytes (Table 6), this molecule registered an HD10 of 16 µM and an HD50 of 67 µM.
`C[C@H](NCC(=O)N(CCCCN)CC(=O)N(CC(=O)N(CC(=O)N(CCCCN)CC(=O)N(CC(=O)N(CC(=O)N(CCCCN)CC(=O)N(CC(=O)N(CC(=O)N(CCCCN)CC(=O)N(CC(N)=O)[C@@H](C)c1ccccc1)[C@@H](C)c1ccccc1)[C@@H](C)c1ccccc1)[C@@H](C)c1ccccc1)[C@@H](C)c1ccccc1)[C@@H](C)c1ccccc1)[C@@H](C)c1ccccc1)c1ccccc1` [1B, H-(Nspe-Nlys-Nspe)4-NH2] (H-[Nspe][Nlys][Nspe][Nspe][Nlys][Nspe][Nspe][Nlys][Nspe][Nspe][Nlys][Nspe]-NH2): the “E. coli MIC” value in the series on E. coli (ATCC 35218) worked out at 6.3 µM. Also, in the series with B. subtilis (ATCC 6633), the “B. subtilis MIC” value came out at 1.6 µM. In addition, half-maximal inhibition in series [1] (IC50) was put at 4.9 µM. Further, in the series on human erythrocytes, the HD50 was greater than 100 µM.
In series [1], `C[C@H](NCC(=O)N(CC(=O)N(CCCCN)CC(=O)N(CC(=O)N(CCCCN)CC(=O)N(CC(=O)N(CCCCN)CC(=O)N(CC(=O)N(CC(=O)N(CC(=O)N(CC(=O)N(CCCCN)CC(N)=O)[C@@H](C)c1ccccc1)[C@@H](C)c1ccccc1)[C@@H](C)c1ccccc1)[C@@H](C)c1ccccc1)[C@@H](C)c1ccccc1)[C@@H](C)c1ccccc1)[C@@H](C)c1ccccc1)c1ccccc1` [1scr, H-(Nspe)2-(Nlys-Nspe)3-(Nspe)3-Nlys-NH2] (H-[Nspe][Nspe][Nlys][Nspe][Nlys][Nspe][Nlys][Nspe][Nspe][Nspe][Nspe][Nlys]-NH2) displayed an IC50 of 8.5 µM. In addition, in the series on human erythrocytes, the HD10 amounted to 64 µM and the HD50 is greater than 200 µM.
For `CC(C)[C@H](C)N(CC(=O)N(CCCCN)CC(=O)N(CC(=O)N(CC(=O)N(CCCCN)CC(=O)N(CC(=O)N(CC(=O)N(CCCCN)CC(=O)N(CC(=O)N(CC(N)=O)[C@@H](C)c1ccccc1)[C@@H](C)c1ccccc1)[C@@H](C)C(C)C)[C@@H](C)C(C)C)[C@@H](C)c1ccccc1)[C@@H](C)c1ccccc1)C(=O)CN(C(=O)CNCCCCN)[C@@H](C)C(C)C` [1-Nsdp2,3,8,9, H-(Nlys-Nsdp-Nsdp-Nlys-Nspe-Nspe)2-NH2] (H-[Nlys][X1][X1][Nlys][Nspe][Nspe][Nlys][X1][X1][Nlys][Nspe][Nspe]-NH2) the same measures were 19 µM, 77 µM and greater than 200 µM.
On to `C[C@H](NCC(=O)N(CCCCN)CC(=O)N(CC(=O)N(CCCCN)CC(=O)N(CCCCN)CC(=O)N(CCCCN)CC(=O)N(CC(=O)N(CCCCN)CC(=O)N(CC(=O)N(CCCCN)CC(=O)N(CCCCN)CC(=O)N(CC(N)=O)[C@@H](C)c1ccccc1)[C@@H](C)c1ccccc1)[C@@H](C)c1ccccc1)[C@@H](C)c1ccccc1)c1ccccc1` [1B-Nlys4,6,10, H-(Nspe-Nlys)2-Nlys2-(Nspe-Nlys)2-Nlys-Nspe)-NH2] (H-[Nspe][Nlys][Nspe][Nlys][Nlys][Nlys][Nspe][Nlys][Nspe][Nlys][Nlys][Nspe]-NH2), for which the “E. coli MIC” value with E. coli (ATCC 35218) was greater than 100 µM. In addition, in the series with B. subtilis (ATCC 6633), the “B. subtilis MIC” value came to 1.6 µM. In addition, the IC50 in series [1] is greater than 100 µM.
On to `C[C@@H](c1ccccc1)N(CC(N)=O)C(=O)CN(CCCCN)C(=O)CN(C(=O)CN(C(=O)CN(CCCCN)C(=O)CN(C(=O)CN(C(=O)CN(CCCCN)C(=O)CN(C(=O)CN(C(=O)CNCCCCN)[C@@H](C)c1ccccc1)[C@@H](C)c1ccccc1)[C@@H](C)c1ccccc1)[C@@H](C)c1ccccc1)[C@@H](C)c1ccccc1)[C@@H](C)c1ccccc1` [111mer, H-(Nlys-Nspe-Nspe)3-Nlys-Nspe-NH2] (H-[Nlys][Nspe][Nspe][Nlys][Nspe][Nspe][Nlys][Nspe][Nspe][Nlys][Nspe]-NH2), for which, in series [1], half-maximal inhibition (IC50) was put at 11 µM. In the series with human erythrocytes, the HD10 was 103 µM and the HD50 is greater than 200 µM.
As to `C[C@@H](c1ccccc1)N(CC(N)=O)C(=O)CN(C(=O)CN(CCCCN)C(=O)CN(C(=O)CN(C(=O)CN(CCCCN)C(=O)CN(CCc1cnc[nH]1)C(=O)CN(C(=O)CN(CCCCN)C(=O)CN(C(=O)CN(C(=O)CNCCCCN)[C@@H](C)c1ccccc1)[C@@H](C)c1ccccc1)[C@@H](C)c1ccccc1)[C@@H](C)c1ccccc1)[C@@H](C)c1ccccc1)[C@@H](C)c1ccccc1` [1-Nhis6], the “E. coli MIC” value in the series on E. coli (ATCC 35218) was determined as 25 µM. Further, in the series with B. subtilis (ATCC 6633), the “B. subtilis MIC” value was determined as 1.6 µM. Besides, in the series with human erythrocytes, the HD10 amounted to 170 µM and the HD50 was greater than 200 µM.
As for `C[C@H](NCC(=O)N(CCCCN)CC(=O)N(CC(=O)N(CCCCN)CC(=O)N(CCCCN)CC(=O)N(CCCCN)CC(=O)N(CC(=O)N(CCCCN)CC(=O)N(CC(=O)N(CCCCN)CC(=O)N(CCCCN)CC(=O)N(CC(=O)N(CC(=O)N(CCCCN)CC(=O)N(CC(N)=O)[C@@H](C)c1ccccc1)[C@@H](C)c1ccccc1)[C@@H](C)c1ccccc1)[C@@H](C)c1ccccc1)[C@@H](C)c1ccccc1)[C@@H](C)c1ccccc1)c1ccccc1` [1B15mer-Nlys4,6,10, H-(Nspe-Nlys)2-Nlys2-(Nspe-Nlys)2-Nlys-Nspe2-Nlys-Nspe-NH2] (H-[Nspe][Nlys][Nspe][Nlys][Nlys][Nlys][Nspe][Nlys][Nspe][Nlys][Nlys][Nspe][Nspe][Nlys][Nspe]-NH2), the “E. coli MIC” value in the series on E. coli (ATCC 35218) was greater than 100 µM. In the series with B. subtilis (ATCC 6633), the “B. subtilis MIC” value was 0.78 µM. The same molecule gave an IC50 in series [1] of 40 µM.
